Test system: K24384-001-R-PDC complex spheroids, viability
Assay: Anticancer human tumor K24384-001-R-PDC patient-derived pancreatic adenocarcinoma cell line growth inhibition [GQUAD]
Conditions: for IC50: curve of first compound; for viability, T/C: stronger effect = lower value
Outline: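 Viability of tumor cells grown as complex spheroids with endothelial and stromal cells, exposed to drug combinations. Top concentration at or near clinical Cmax (else 10 microM), diluted in half-log increments.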

[1] = second compound 0.0316 µM, first compound 0.0316 µM
[2] = second compound 0.0316 µM, first compound 0.1 µM
[3] = second compound 0.0316 µM, first compound 0.316 µM
[4] = second compound 0.0316 µM, first compound 1 µM
[5] = second compound 0.0316 µM, first compound 3.16 µM
[6] = second compound 0.0316 µM, first compound 10 µM
[7] = second compound 0.1 µM, first compound 0.0316 µM
[8] = second compound 0.1 µM, first compound 0.1 µM
[9] = second compound 0.1 µM, first compound 0.316 µM
[10] = second compound 0.1 µM, first compound 1 µM
[11] = second compound 0.1 µM, first compound 3.16 µM
[12] = second compound 0.1 µM, first compound 10 µM
[13] = second compound 0.316 µM, first compound 0.0316 µM
[14] = second compound 0.316 µM, first compound 0.1 µM
[15] = second compound 0.316 µM, first compound 0.316 µM
[16] = second compound 0.316 µM, first compound 1 µM
[17] = second compound 0.316 µM, first compound 3.16 µM
[18] = second compound 0.316 µM, first compound 10 µM
[19] = second compound 1 µM, first compound 0.0316 µM
[20] = second compound 1 µM, first compound 0.1 µM
[21] = second compound 1 µM, first compound 0.316 µM
[22] = second compound 1 µM, first compound 1 µM
[23] = second compound 1 µM, first compound 3.16 µM
[24] = second compound 1 µM, first compound 10 µM
[25] = second compound 3.16 µM, first compound 0.0316 µM
[26] = second compound 3.16 µM, first compound 0.1 µM
[27] = second compound 3.16 µM, first compound 0.316 µM
[28] = second compound 3.16 µM, first compound 1 µM
[29] = second compound 3.16 µM, first compound 3.16 µM
[30] = second compound 3.16 µM, first compound 10 µM
[31] = second compound 10 µM, first compound 0.0316 µM
[32] = second compound 10 µM, first compound 0.1 µM
[33] = second compound 10 µM, first compound 0.316 µM
[34] = second compound 10 µM, first compound 1 µM
[35] = second compound 10 µM, first compound 3.16 µM
[36] = second compound 10 µM, first compound 10 µM
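Further: spheroids exposed to compounds for seven days.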

## C#Cc1c(F)ccc2cc(O)cc(-c3ncc4c(N5CC6CCC(C5)N6)nc(OCC56CCCN5CC(F)C6)nc4c3F)c12 (stereo unspecified) + Cc1[nH]c2ccc(F)cc2c1-c1nc2c3cccnc3c3ncccc3c2[nH]1
Second compound 0.0316 µM
  IC50: 1360 nM
Second compound 0.1 µM
  IC50: 1490 nM
Second compound 0.316 µM
  IC50: 1540 nM
Second compound 1 µM
  IC50: 1820 nM
Second compound 3.16 µM
  IC50: 969 nM
Second compound 10 µM
  IC50: 1080 nM
[1]
  viability, T/C: 99.9%
[2]
  viability, T/C: 99.6%
[3]
  viability, T/C: 129%
[4]
  viability, T/C: 58.5%
[5]
  viability, T/C: 34.4%
[6]
  viability, T/C: 18.2%
[7]
  viability, T/C: 93.9%
[8]
  viability, T/C: 112%
[9]
  viability, T/C: 85.1%
[10]
  viability, T/C: 58%
[11]
  viability, T/C: 34.3%
[12]
  viability, T/C: 14.5%
[13]
  viability, T/C: 97.1%
[14]
  viability, T/C: 101%
[15]
  viability, T/C: 74.4%
[16]
  viability, T/C: 57.4%
[17]
  viability, T/C: 39.2%
[18]
  viability, T/C: 19.1%
[19]
  viability, T/C: 91%
[20]
  viability, T/C: 101%
[21]
  viability, T/C: 83%
[22]
  viability, T/C: 64.1%
[23]
  viability, T/C: 37.5%
[24]
  viability, T/C: 16.9%
[25]
  viability, T/C: 75.6%
[26]
  viability, T/C: 87.6%
[27]
  viability, T/C: 64.7%
[28]
  viability, T/C: 47.1%
[29]
  viability, T/C: 31.3%
[30]
  viability, T/C: 11.7%
[31]
  viability, T/C: 80.5%
[32]
  viability, T/C: 68.6%
[33]
  viability, T/C: 69%
[34]
  viability, T/C: 52.4%
[35]
  viability, T/C: 27.5%
[36]
  viability, T/C: 10.8%

## CC(=O)O[C@H]1C(=O)[C@@]2(C)[C@H]([C@H](OC(=O)c3ccccc3)[C@]3(O)C[C@H](OC(=O)[C@H](O)[C@@H](NC(=O)c4ccccc4)c4ccccc4)C(C)=C1C3(C)C)[C@]1(OC(C)=O)CO[C@@H]1C[C@@H]2O + Cc1[nH]c2ccc(F)cc2c1-c1nc2c3cccnc3c3ncccc3c2[nH]1
Second compound 0.0316 µM
  IC50: < 31.6 nM
Second compound 0.1 µM
  IC50: < 31.6 nM
Second compound 0.316 µM
  IC50: < 31.6 nM
Second compound 1 µM
  IC50: < 31.6 nM
Second compound 3.16 µM
  IC50: < 31.6 nM
Second compound 10 µM
  IC50: < 31.6 nM
[1]
  viability, T/C: 31.8%
[2]
  viability, T/C: 25%
[3]
  viability, T/C: 21.2%
[4]
  viability, T/C: 16.8%
[5]
  viability, T/C: 24.9%
[6]
  viability, T/C: 28.7%
[7]
  viability, T/C: 42.4%
[8]
  viability, T/C: 23.7%
[9]
  viability, T/C: 19.6%
[10]
  viability, T/C: 18.7%
[11]
  viability, T/C: 22.7%
[12]
  viability, T/C: 27.1%
[13]
  viability, T/C: 40%
[14]
  viability, T/C: 28.3%
[15]
  viability, T/C: 18.6%
[16]
  viability, T/C: 22.3%
[17]
  viability, T/C: 24.5%
[18]
  viability, T/C: 29.1%
[19]
  viability, T/C: 38.1%
[20]
  viability, T/C: 28.2%
[21]
  viability, T/C: 18.5%
[22]
  viability, T/C: 26.1%
[23]
  viability, T/C: 31.6%
[24]
  viability, T/C: 31.4%
[25]
  viability, T/C: 34.6%
[26]
  viability, T/C: 18.9%
[27]
  viability, T/C: 18.5%
[28]
  viability, T/C: 16.7%
[29]
  viability, T/C: 22.9%
[30]
  viability, T/C: 18.1%
[31]
  viability, T/C: 27.6%
[32]
  viability, T/C: 23.2%
[33]
  viability, T/C: 24.1%
[34]
  viability, T/C: 15.4%
[35]
  viability, T/C: 22.2%
[36]
  viability, T/C: 23.1%

## CC[C@@]1(O)C(=O)OCc2c1cc1n(c2=O)Cc2cc3c(CN(C)C)c(O)ccc3nc2-1 + Cc1[nH]c2ccc(F)cc2c1-c1nc2c3cccnc3c3ncccc3c2[nH]1
Second compound 0.0316 µM
  IC50: > 316 nM
Second compound 0.1 µM
  IC50: 292 nM
Second compound 0.316 µM
  IC50: 233 nM
Second compound 1 µM
  IC50: 239 nM
Second compound 3.16 µM
  IC50: 139 nM
Second compound 10 µM
  IC50: 146 nM
Second compound 0.0316 µM, first compound 0.000999 µM
  viability, T/C: 102%
Second compound 0.0316 µM, first compound 0.00316 µM
  viability, T/C: 110%
Second compound 0.0316 µM, first compound 0.00999 µM
  viability, T/C: 95.7%
[1]
  viability, T/C: 80.9%
Second compound 0.0316 µM, first compound 0.0999 µM
  viability, T/C: 61.3%
[3]
  viability, T/C: 51.2%
Second compound 0.1 µM, first compound 0.000999 µM
  viability, T/C: 83.5%
Second compound 0.1 µM, first compound 0.00316 µM
  viability, T/C: 113%
Second compound 0.1 µM, first compound 0.00999 µM
  viability, T/C: 82.4%
[7]
  viability, T/C: 87.7%
Second compound 0.1 µM, first compound 0.0999 µM
  viability, T/C: 65.8%
[9]
  viability, T/C: 49%
Second compound 0.316 µM, first compound 0.000999 µM
  viability, T/C: 85.4%
Second compound 0.316 µM, first compound 0.00316 µM
  viability, T/C: 92.2%
Second compound 0.316 µM, first compound 0.00999 µM
  viability, T/C: 83.1%
[13]
  viability, T/C: 82.9%
Second compound 0.316 µM, first compound 0.0999 µM
  viability, T/C: 68.3%
[15]
  viability, T/C: 43.4%
Second compound 1 µM, first compound 0.000999 µM
  viability, T/C: 95.7%
Second compound 1 µM, first compound 0.00316 µM
  viability, T/C: 92.8%
Second compound 1 µM, first compound 0.00999 µM
  viability, T/C: 98.8%
[19]
  viability, T/C: 76.8%
Second compound 1 µM, first compound 0.0999 µM
  viability, T/C: 59%
[21]
  viability, T/C: 46.7%
Second compound 3.16 µM, first compound 0.000999 µM
  viability, T/C: 73.8%
Second compound 3.16 µM, first compound 0.00316 µM
  viability, T/C: 74.7%
Second compound 3.16 µM, first compound 0.00999 µM
  viability, T/C: 79.1%
[25]
  viability, T/C: 81.2%
Second compound 3.16 µM, first compound 0.0999 µM
  viability, T/C: 53.6%
[27]
  viability, T/C: 41%
Second compound 10 µM, first compound 0.000999 µM
  viability, T/C: 78.1%
Second compound 10 µM, first compound 0.00316 µM
  viability, T/C: 55%
Second compound 10 µM, first compound 0.00999 µM
  viability, T/C: 66.4%
[31]
  viability, T/C: 67.4%
Second compound 10 µM, first compound 0.0999 µM
  viability, T/C: 58.8%
[33]
  viability, T/C: 31.3%

Reference: PubChem BioAssay AID2060483 (Molecular Pharmacology Branch, DTP, NCI, 2025)
